Where “and” joins values, the source holds several entries; their conditions need not be identical. Identical values can stand only once.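 Each compound was tested at five concentrations against cells in 96-well plates for 48 hours. Here, GI50 denotes the concentration required for 50% inhibition of growth. TGI marks complete inhibition of growth.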

Holding throughout (experiment): NCI-60 cell line screen, 48 h
Experiment [1] relates to KM12 colon.
For experiment [2], the system named is UO-31 renal.
Experiment [3] relates to SK-MEL-5 melanoma.
Experiment [4] relates to K-562 leukemia.
Experiment [5] has as its system M14 melanoma.
The test system of experiment [6] is CCRF-CEM leukemia.
In experiment [7] the test system is KM20L2 colon.
Experiment [8] relates to MOLT-4 leukemia.
In experiment [9] the test system is DMS 273 small cell lung.
The test system of experiment [10] is DLD-1 colon.

Turning to `CCCCC#C[I+]c1ccccc1`, the TGI came to 27.7 µM in experiment [1]; 30 µM in experiment [2]; 31.1 µM in experiment [3]; 40.3 µM in experiment [4]; 29 µM in experiment [5]; 24.4 µM in experiment [6]. The TGI in experiment [7] was determined as 35.9 µM; in [8] it was 23.9 µM; in experiment [9], 40.9 µM; in [10], 38.2 µM.
On to `O=C(NC(=O)c1ccccc1[N+](=O)[O-])Nc1ccc(Oc2ncc(Br)cn2)c(Cl)c1`, for which the GI50 in [1] was below 0.0196 µM; in experiment [3], 0.04 µM; in [6], below 0.0194 µM; in [8], below 0.0222 µM; in experiment [10] it was below 0.0201 µM. For the same compound, the TGI turned out to be 0.059 µM in [7] and 0.0212 µM in experiment [9].
As for `O=C(CCN1CCCCC1)C(=Cc1ccccc1)C(=O)CCN1CCCCC1`, the TGI is above 100 µM in experiment [1]; above 100 µM in experiment [2]; above 100 µM in [3]; above 55.2 µM in experiment [4]; 7.36 µM and 51.2 µM in experiment [6]; above 100 µM in experiment [7]. Besides, the TGI in experiment [8] was 42.3 µM; in [9], above 100 µM; in [10], 44.5 µM. Further, the GI50 was 3.46 µM in [4], 2.44 µM in experiment [6], 4.32 µM in experiment [8] and 7.61 µM in [9].
Regarding `CCC(C(=O)O)c1ccc(OC)cc1` (stereo not given), the TGI in [1], in experiment [2], in experiment [3], in [4], in [5] and in experiment [6] was above 100 µM each time. Also, the TGI in experiment [7], in [8], in experiment [9] and in [10] was above 100 µM each time.

(Values after PubChem BioAssay (NCI).)
